Measured values taken from patent publication US8604042B2, “Bi-aryl meta-pyrimidine inhibitors of kinases” (TargeGen, Inc., priority 2005, dated 2013).
pIC50: −log10 of the molar value. Counter-ions that a name gives are not always drawn.

Molecular target: T1, recombinant JAK2 (Homo sapiens, UniProt O60674)
T1 construct: purchased Upstate Cell Signaling Solutions
Experiment: IC50 value determinations for Jak2 kinase, luminescence-based kinase assay (Kinase-Glo)
Format: biochemical
Settings: Table 1
Procedure: The IC50 values for compounds were determined using a luminescence-based kinase assay with recombinant JAK2 obtained from Upstate Cell Signaling Solutions. In white, flat bottom, 96-well plates (Nunc) parallel assays were run at room temperature at a final volume of 50 μL.
Two control reactions were also ran: one reaction containing no compound and the second containing neither inhibitor nor peptide substrate. IC50 values were derived from experimental data using the non-linear curve fitting capabilities of Prism (Version 4; GraphPad Software).

T1 sequence (O60674 808-1132 limits assumed): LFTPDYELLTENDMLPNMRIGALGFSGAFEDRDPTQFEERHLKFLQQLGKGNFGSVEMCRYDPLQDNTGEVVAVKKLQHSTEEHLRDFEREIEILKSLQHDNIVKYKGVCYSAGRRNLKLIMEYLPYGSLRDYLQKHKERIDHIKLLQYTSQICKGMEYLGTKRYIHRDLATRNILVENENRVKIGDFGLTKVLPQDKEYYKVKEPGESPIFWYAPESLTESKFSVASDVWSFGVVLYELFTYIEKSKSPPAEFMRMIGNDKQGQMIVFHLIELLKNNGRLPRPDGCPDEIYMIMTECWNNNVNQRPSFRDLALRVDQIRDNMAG

Compared with `Cc1cnc(Nc2ccc(N3CCN(C)CC3)cc2)nc1Nc1cccc(S(=O)(=O)N2CCOCC2)c1` [5-Methyl-N2-[4-(4-methyl-piperazin-1-yl)-phenyl]-N4-[3-(morpholine-4-sulfonyl)-phenyl]-pyrimidine-2,4-diamine], `Cc1cnc(Nc2ccc(N3CCN(C)CC3)cc2)nc1Nc1cccc(S(=O)(=O)NC(C)C)c1` [N-Isopropyl-3-{5-methyl-2-[4-(4-methyl-piperazin-1-yl)-phenylamino]-pyrimidin-4-ylamino}-benzenesulfonamide] is 0.25 log units higher in pIC50: 7.68 for the first, 7.93 for the second. The second is the more potent here.

Compared with `COc1cccc(Nc2ccnc(Nc3ccc(S(=O)(=O)NCCN4CCCC4)cc3)n2)c1` [4-[4-(3-Methoxy-phenylamino)-pyrimidin-2-ylamino]-N-(2-pyrrolidin-1-yl-ethyl)-benzenesulfonamide trifluoroacetate], `COc1ccc(Nc2ccnc(Nc3ccc(S(=O)(=O)NCCN4CCCC4)cc3)n2)cc1` [4-[4-(4-Methoxy-phenylamino)-pyrimidin-2-ylamino]-N-(2-pyrrolidin-1-yl-ethyl)-benzenesulfonamide trifluoroacetate] is 1.23 log units lower in pIC50: 6.20 for the first, 4.97 for the second.

Compared with `Cc1cnc(Nc2ccc(OC3CCNCC3)cc2)nc1Nc1cccc(C(=O)N2CCCC2)c1` [(3-{5-Methyl-2-[4-(piperidin-4-yloxy)-phenylamino]-pyrimidin-4-ylamino}-phenyl)-pyrrolidin-1-yl-methanone], `Cc1cnc(Nc2ccc(OC3CCNCC3)cc2)nc1Nc1cccc(C)c1C` [5-methyl-N4-(2,3-dimethylphenyl)-N2-(4-(piperidin-4-yloxy)phenyl)pyrimidine-2,4-diamine Hydrochloride] is 1.41 log units higher in pIC50: 6.95 for the first, 8.36 for the second. The second is the more potent here.

`Cc1cnc(Nc2ccc(OCCN3CCCC3)cc2)nc1Nc1ccc(Cl)c(F)c1` [N4-(4-Chloro-3-fluoro-phenyl)-5-methyl-N2-[4-(2-pyrrolidin-1-yl-ethoxy)-phenyl]-pyrimidine-2,4-diamine] and `Cc1cnc(Nc2ccc(N3CCN(C)CC3)cc2)nc1Nc1cc(C)c(Cl)c(C)c1` [drawing 361, N4-(4-chloro-3,5-dimethylphenyl)-5-methyl-N2-(4-(4-methylpiperazin-1-yl)phenyi)pyrimidine-2,4-diamine Hydrochloride] are within 0.2 log units of each other in pIC50: 7.40 for the first, 7.42 for the second.

`Cc1cn(-c2ccc(Nc3ncc(C)c(Nc4cccc(S(=O)(=O)NC(C)(C)C)c4)n3)cc2)cn1` [N-tert-Butyl-3-{5-methyl-2-[4-(4-methyl-imidazol-1-yl)-phenylamino]-pyrimidin-4-ylamino}-benzenesulfonamide] and `Cc1cnc(Nc2cccc(-c3nnn[nH]3)c2)nc1Nc1cccc(S(=O)(=O)NC(C)(C)C)c1` [N-tert-Butyl-3-{5-methyl-2-[3-(1H-tetrazol-5-yl)-phenylamino]-pyrimidin-4-ylamino}-benzenesulfonamide] are within 0.2 log units of each other in pIC50: 7.38 for the first, 7.25 for the second.

First: Cc1cnc(Nc2ccc(-n3cccn3)cc2)nc1Nc1cccc(C(C)(C)C)c1 [N2-(4-(1H-pyrazol-1-yl)phenyl)-N4-(3-tert-butylphenyl)-5-methylpyrimidine-2,4-diamine]
Second: Cc1cnc(Nc2ccc(N3CCNCC3)nc2)nc1Nc1cccc(S(=O)(=O)NC(C)(C)C)c1 [N-tert-Butyl-3-[5-methyl-2-(6-piperazin-1-yl-pyridin-3-ylamino)-pyrimidin-4-ylamino]-benzenesulfonamide]
The pIC50 of the first is 1.18 log units lower: 6.82 for the first, 8.00 for the second. The second is the more potent here.

First: COC(=O)c1cc(Nc2ncc(C)c(Nc3ccc(Cl)c(OC)c3)n2)ccc1N1CCNCC1 [5-[4-(4-Chloro-3-methoxy-phenylamino)-5-methyl-pyrimidin-2-ylamino]-2-piperazin-1-yl-benzoic acid methyl ester]
Second: Cc1cnc(Nc2ccc(CN3CCNCC3)cc2)nc1Nc1cccc2[nH]ccc12 [N4-(1H-Indol-4-yl)-5-methyl-N2-(4-piperazin-1-ylmethyl-phenyl)-pynmidine-2,4-diamine]
The pIC50 of the first is 0.29 log units higher: 8.29 for the first, 8.00 for the second. The first is the more potent here.

Work on `Cc1cnc(Nc2ccc(OCCO)nc2)nc1Nc1cccc2c1OCO2` [2-{5-[4-(Benzo[1,3]dioxol-4-ylamino)-5-methyl-pyrimidin-2-ylamino]-pyridin-2-yloxy}-ethanol] yielded a pIC50 of 6.94.

Same assay, conditions: Table 6

In the case of `COc1cccc(Nc2nc(Nc3ccc(OCCN4CCCC4)cc3)ncc2C)c1` [Compound 5], the pIC50 was 7.28.

Same assay, conditions: Table 7, SAR for the P3 region

Work on `COc1cccc(Nc2nc(Nc3ccc(OCCN4CCCC4)cc3)ncc2C)c1` [Compound 5] yielded a pIC50 of 7.28.
